From EP1283052A1, “Pharmaceutical composition containing caspase-8 and /or caspase-9 useful for overcoming glucocorticoid- and cancer therapy-induced apoptosis of tumours” (Deutsches Krebsforschungszentrum Stiftung des öffentlichen …, priority 2001, dated 2003) come the findings set out here.

The assay deals with P5, P693 and CEM cells. In words: Mitochondrial membrane potential by JC-1 staining and flow cytometry. It counts as cell-based, human. Particulars: 24 h, co-stimulation with cisplatin 2 µg/ml on top of DEX; Fig. 3a. The protocol: • (a) P5, P693 or CEM cells, either untreated (CO) or stimulated with cisplatin (CIS, 2 µg/ml) were incubated in the absence (white bars) or presence (black bars) of DEX (1 µM). 24 h later cells were stained with the cationic dye JC-1 which indicates mitochondrial depolarization by an increase in green fluorescence. The percentage of green-fluorescent cells was determined by flow cytometry. • (b) P5 cells were treated as described above. 6 or 24 h later mitochondrial fractions were prepared and assayed by Western blotting using a monoclonal antibody which specifically detects the 15 kDa cytochrome c protein. The results depicted here have been performed three times with similar outcome.
• (A) Cell culture. […] The mice were given 0.28 mg/L DEX in drinking water, and the amount of water consumed was monitored. […] The tumour volumes were measured using callipers, and calculated using, as an approximation, the formula for volume of a hemi-ellipsoid: π(width^2 x length)/6. […] Early apoptotic changes were identified by staining of cells with fluoresceinthiocyanate (FITC)-conjugated annexin V and propidium iodide (Becton Dickinson, Heidelberg, Germany) and analysed by flow cytometry (FACScan, Becton Dickinson) as described (Herr et al., EMBO J. 16 (1997), 6200-6208) • (E) Immunohistochemistry. […] Protein expression was detected by Western blotting as described (Herr et al., 1997). […]
(In general: In flow cytometry, cells or beads pass a laser one at a time.)

With `N.N.[Cl][Pt][Cl]` [cisplatin], the “percentage of green fluorescence (mitochondrial damage)” value is given as “further enhanced”.
